Measured values taken from patent US9359422B2, “Single chain relaxin polypeptides” (The University of Queensland, priority 2010, dated 2016).
Entries after “also recorded” stand apart in the source; their conditions may differ. Where two headings read alike, the source gives them in different places. Where no end group is shown, it is not given here.

Tests used:
[1] = target: T1, human RXFP3 (Homo sapiens, UniProt Q9NSD7); assay: RXFP3 competition binding assay with Eu-DTPA-R3/I5; conditions: for binding affinity for RXFP3 (in words): RXFP3-expressing cells, Eu-labelled H3/INSL5 chimeric polypeptide
T1 construct: expressed in transfected cells
T1 sequence (Q9NSD7 1-469): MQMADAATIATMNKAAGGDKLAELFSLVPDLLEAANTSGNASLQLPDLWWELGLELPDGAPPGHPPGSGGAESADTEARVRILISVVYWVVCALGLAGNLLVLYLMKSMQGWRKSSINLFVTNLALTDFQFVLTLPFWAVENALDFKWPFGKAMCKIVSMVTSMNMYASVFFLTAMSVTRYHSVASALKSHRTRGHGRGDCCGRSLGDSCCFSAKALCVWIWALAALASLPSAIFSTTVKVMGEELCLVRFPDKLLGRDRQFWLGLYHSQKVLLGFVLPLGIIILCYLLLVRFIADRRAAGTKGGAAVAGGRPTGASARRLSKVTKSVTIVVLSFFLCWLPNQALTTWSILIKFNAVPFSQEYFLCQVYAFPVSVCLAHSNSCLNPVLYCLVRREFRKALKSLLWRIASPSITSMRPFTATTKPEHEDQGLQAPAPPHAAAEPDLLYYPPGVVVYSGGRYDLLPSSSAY

[2] = target: T1, human RXFP3; assay: cAMP activity assay (pCRE β-galactosidase reporter, forskolin-induced) in CHO cells transfected with RXFP3; assay type: cell-based; conditions: for agonist activity at RXFP3 (inhibition of cAMP activity): RXFP3-expressing cells, 5 μM forskolin; for antagonist activity at RXFP3 (rescue of cAMP levels): in the presence of 10 nM H3 relaxin
Protocol: For activity determination, a cAMP activity assay was used. CHO cells were cultured in a 1:1 mixture of Dulbecco's modified Eagle's medium and HAMNS-F12 medium supplemented with 10% fetal bovine serum, 1% L-glutamine and 1% penicillin/strepicillin and cultivated in a humidified chamber with 5% CO2 at 37.8° C. 20 000 cells per well were seeded into a pre-coated poly-L lysine 96-wells plate. Cells were incubated over night before being transfected with the mammalian expression vector pcDNA3.1(+)zeo (UMR cDAN Resource Center) carrying human RXFP3 together with a pCRE β-galactosidase reporter plasmid using TransIT-CHO, OptiMEM and CHO-MOJO reagents. Cells were then incubated over night in a humidified chamber with 5% CO2 at 37.8° C. before cAMP assays were performed. […] In brief, the cells were incubated with the peptide for 6 h in a humidified chamber before the media was aspirated off and the cells were frozen at −80° C. To develop the results, the cells were lysed by addition of 25 μl buffer A (5 ml 10 mM sodium phosphate buffer, pH 8.0, 1 ml 0.2 mM MgSO4 and 50 μl 0.01 mM MnCl2 in 44 ml H2O) to each well and incubated on a shaker for 10 min at room temperature before addition of 100 μl Buffer B (5 ml 100 mM sodium phosphate buffer, pH 8.0, 1 ml 2 mM MgSO4, 50 μl 0.1 mM MnCl2, 2.5 ml 0.5% Triton X-100 and 0.16 ml 40 mM β-mercaptoethanol in 41.3 ml H2O) followed by a 10 min incubation. The substrate, chlorophenol red-β-D-galactopyranoside (CPRG), was then added to each well and the reaction was left at room temperature until a absorbance of <1 AU at 570 nm was reached.

[3] = test system: alcohol-preferring (iP) rats; assay: Operant alcohol self-administration in alcohol-preferring (iP) rats; assay type: in vivo, rat; conditions: 10% ethanol, FR3, 3 μg, 10 μg or 30 μg via lateral cerebral ventricle cannula, vs normal and vehicle responding
Protocol: Rats were trained to stably administer 10% ethanol during daily operant session (n=18 rats) and then implanted with guide cannulae aimed at the lateral cerebral ventricle. Following a 7 day recovery period, the rats were re-stabilised on alcohol self-administration under fixed-ratio 3 (FR3) conditions and the effect of B1-22R was examined.
Rats were administered 3 μg, 10 μg or 30 μg of the B1-22R antagonist. […] The effect observed was dose-dependent.

[4] = test system: rats; assay type: in vivo, rat; conditions: 10 μg, 0 to 45 minutes post administration, vs vehicle
Source text: The inventors also carried out experiments to determine if the effects may be due to disruption in locomotor skills.

[5] = target: T2, RXFP4 (Homo sapiens, UniProt Q8TDU9); assay: cAMP activity assay in RXFP4-expressing cells; assay type: cell-based
T2 construct: expressed in transfected cells; host or cells: RXFP4-expressing cells

[6] = target: T3, human RXFP1 (Homo sapiens, UniProt Q9HBX9); assay: RXFP1 competition binding assay with Eu-DTPA-H2 relaxin; conditions: HEK-293T cells transfected with RXFP1, Eu-DTPA-H2 relaxin
T3 construct: expressed in transfected cells; host or cells: HEK-293T
T3 sequence (Q9HBX9 1-757): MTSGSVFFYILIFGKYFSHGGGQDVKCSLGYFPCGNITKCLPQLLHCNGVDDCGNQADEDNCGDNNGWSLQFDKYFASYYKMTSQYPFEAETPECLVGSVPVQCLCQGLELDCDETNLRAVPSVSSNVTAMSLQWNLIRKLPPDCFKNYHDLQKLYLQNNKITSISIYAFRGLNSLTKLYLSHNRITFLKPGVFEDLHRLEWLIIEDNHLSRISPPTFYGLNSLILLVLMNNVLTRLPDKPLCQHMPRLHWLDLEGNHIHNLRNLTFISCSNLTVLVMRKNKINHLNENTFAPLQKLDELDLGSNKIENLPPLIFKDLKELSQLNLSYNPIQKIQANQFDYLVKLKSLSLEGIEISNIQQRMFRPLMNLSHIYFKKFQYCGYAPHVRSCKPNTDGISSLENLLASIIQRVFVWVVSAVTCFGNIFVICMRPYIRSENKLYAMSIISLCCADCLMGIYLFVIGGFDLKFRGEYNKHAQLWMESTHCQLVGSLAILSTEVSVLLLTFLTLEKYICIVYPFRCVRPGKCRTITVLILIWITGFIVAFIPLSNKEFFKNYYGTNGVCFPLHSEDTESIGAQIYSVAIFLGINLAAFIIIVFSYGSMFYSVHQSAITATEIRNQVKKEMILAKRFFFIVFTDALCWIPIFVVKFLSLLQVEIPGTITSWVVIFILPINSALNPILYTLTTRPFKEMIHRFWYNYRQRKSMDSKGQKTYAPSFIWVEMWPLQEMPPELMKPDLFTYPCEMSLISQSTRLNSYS
Protocol: Binding assays were carried out as follows. HEK-293T cells stably transfected with human RXFP3 were plated out onto pre-coated poly-L-lysine 96-well viewplates with a density of 50 000 cells per well. Media was aspirated off and the cells were washed with PBS before different concentrations of peptide diluted in binding buffer (100 mM HEPES, pH 7.6, 5 mM KCl, 1.3 mM MgSO4, 1.5 mM NaOAc, 1 mM EDTA and 10 mM glucose) and 300 μM of Eu-DTPA-R3/15 was added to each well. The cells were incubated at room temperature for 60 min before the peptide solution was aspirated off and the cells washed with PBS. DELFIA enhancement solution was then added and the cells incubated for a further 30-60 min at room temperature, after which the fluorescence was measured using a time resolved fluorometer with excitation at 340 nm an emission at 614 nm.
Similarly, the B1-22R single chain polypeptide was tested for its ability to activate RXFP1 or antagonise the action of H2 relaxin at this receptor. To do so, binding assays were carried out essentially as described above in Example 2 except using HEK-293T cells transfected with RXFP1 and 300 μM of Eu-DTPA-H2 relaxin.

[7] = HEK-293T cells stably transfected with human RXFP3, Eu-DTPA-R3/I5 tracer, n = 3, read-out: pIC50 (n = 3), binding affinities of single chain relaxin polypeptides for RXFP3 (converted)
[8] = HEK-293T cells stably transfected with human RXFP3, Eu-DTPA-R3/I5 tracer, n = 3

T2 sequence (Q8TDU9 whole entry, species assumed): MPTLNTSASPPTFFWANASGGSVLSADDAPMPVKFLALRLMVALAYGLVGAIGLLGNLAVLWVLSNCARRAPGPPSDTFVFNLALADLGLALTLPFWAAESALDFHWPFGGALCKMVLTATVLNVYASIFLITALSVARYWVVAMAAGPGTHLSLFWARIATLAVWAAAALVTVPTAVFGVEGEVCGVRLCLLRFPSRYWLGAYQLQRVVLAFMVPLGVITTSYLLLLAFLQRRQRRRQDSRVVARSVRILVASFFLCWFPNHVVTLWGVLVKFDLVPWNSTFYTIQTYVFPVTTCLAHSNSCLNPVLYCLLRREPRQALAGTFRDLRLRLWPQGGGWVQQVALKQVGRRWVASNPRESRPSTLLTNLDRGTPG

| Substance | IC50 [1, 7] [nM] | agonist activity at RXFP3 (inhibition of cAMP activity) [2] | binding affinity for RXFP3 (in words) [1] | further results |
| --- | --- | --- | --- | --- |
| H-GVRLSGREFIRAVIFTSR-NH2 [H3 B6-22R] | 468 | failed to show any agonist activity | binding affinities for RXFP3 similar to that of B1-22R |  |
| H-RAAPYGVRLSGREFIRAVIFTSGGSRW-OH [H3 B-chain C10/22S, reference compound] |  |  | significantly less efficient in binding this receptor |  |
| H-RAAPYGVRLSGREFIRAVIFTSR-NH2 [H3 B1-22R] |  | no such inhibition |  | ethanol lever presses [3]: significant decrease in ethanol lever presses; also recorded: dose-dependent; IC50 [1]: 17.8 nM; locomotor skills (floor plane moves or floor plane distance) [4]: No significant difference; agonist activity at RXFP4 ([5]; RXFP4-expressing cells, cAMP): no agonist activity; antagonist activity at RXFP4 ([5]; block of INSL5 or H3 relaxin stimulated RXFP4 activation): fails to show any observable antagonist activity; affinity for the RXFP1 receptor [6]: very poor affinity; antagonist activity at RXFP3 (rescue of cAMP levels) [2]: rescued cAMP levels towards 100%; antagonist activity at RXFP3 (rescue of cAMP levels) ([2]; listed as H1-B22R): greatest antagonist activity |
| RAAPYGVRLSGREFIRAVIFTS [H3 B1-22] |  |  | significantly less efficient in binding this receptor | pIC50 (n = 3), binding affinities of single chain relaxin polypeptides for RXFP3 [1, 8]: No activity |
| RAAPYGVRLSGREFIRAVIFTSGGSRW-OH [H3 B-chain C10/22S, reference compound] | 2510 |  |  |  |

Continued, in another order:

| IC50 [1, 7] [nM] | agonist activity at RXFP3 (inhibition of cAMP activity) [2] | Substance | binding affinity for RXFP3 (in words) [1] | further results |
| --- | --- | --- | --- | --- |
| 87.1 | failed to show any agonist activity | H-AAPYGVRLSGREFIRAVIFTSR-NH2 [H3 B2-22R] | binding affinities for RXFP3 similar to that of B1-22R |  |
| 195 | failed to show any agonist activity | H-APYGVRLSGREFIRAVIFTSR-NH2 [H3 B3-22R] | binding affinities for RXFP3 similar to that of B1-22R |  |
| 219 | failed to show any agonist activity | H-PYGVRLSGREFIRAVIFTSR-NH2 [H3 B4-22R] | binding affinities for RXFP3 similar to that of B1-22R |  |
| 148 | failed to show any agonist activity | H-RAAPYGVRLAGREFIRAVIFTAR-NH2 [H3 B1-22R C10/22A] | binding affinities for RXFP3 similar to that of B1-22R | antagonist activity at RXFP3 (rescue of cAMP levels) [2]: lowest antagonist activity |
| 347 | failed to show any agonist activity | H-RAAPYGVRLSGREFIRAVIFTSR-OH [H3 B1-22R Acid] | binding affinities for RXFP3 similar to that of B1-22R |  |
| 427 | failed to show any agonist activity | H-YGVRLSGREFIRAVIFTSR-NH2 [H3 B5-22R] | binding affinities for RXFP3 similar to that of B1-22R |  |
|  | failed to show any agonist activity | VRLSGREFIRAVIFTSR [H3 B7-22R] | failed to bind RXFP3 at any detectable level | pIC50 (n = 3), binding affinities of single chain relaxin polypeptides for RXFP3 [1, 8]: No activity |
